Usually IC50 stands for the concentration that inhibits the measured activity by half. In general, inhibition refers to the drop in the measured response relative to a control, in per cent. High values mean strong suppression, low ones little suppression. Usually pKa stands for the negative logarithm of the acid dissociation constant.

Series [1] has as its target T1, human topo IIα (Homo sapiens, UniProt P11388).
T1 construct: purchased Inspiralis (Norwich, U.K.)
The experiment in a line: HTS relaxation assay of human topo IIα. In kind it is biochemical.

The target of series [2] is T1, human topo IIα. Nature of the series: Human topo IIα-mediated cleavage assay. In kind it is biochemical. To be noted: for linear DNA formation in cleavage assay (in words): four concentrations. The source says:
To determine whether compounds act as catalytic inhibitors, a cleavage assay was next performed for compounds 1 and 9.
We performed the assay in collaboration with Inspiralis (Norwich, U.K.).

Series [3] deals with T1, human topo IIα. Nature of the series: Human topo IIα-mediated kDNA decatenation assay. In kind it is biochemical. As for the experimental part: (§1) We made use of the human topo II decatenation assay kit from Inspiralis (Norwich, U.K.) to assess the ability of selected compounds to impede DNA decatenation.[89],[90] It was performed for topo IIα and topo IIβ isoforms using the protocol as described previously.[35]

The target of series [4] is bacterial DNA gyrase. More on the design: method as in earlier work. To be noted: previous virtual screening campaign; cited from earlier work.
The target of series [5] is T2, human topo IIβ (Homo sapiens, UniProt Q02880).
T2 construct: purchased Inspiralis (Norwich, U.K.)
T2 sequence (Q02880 whole entry): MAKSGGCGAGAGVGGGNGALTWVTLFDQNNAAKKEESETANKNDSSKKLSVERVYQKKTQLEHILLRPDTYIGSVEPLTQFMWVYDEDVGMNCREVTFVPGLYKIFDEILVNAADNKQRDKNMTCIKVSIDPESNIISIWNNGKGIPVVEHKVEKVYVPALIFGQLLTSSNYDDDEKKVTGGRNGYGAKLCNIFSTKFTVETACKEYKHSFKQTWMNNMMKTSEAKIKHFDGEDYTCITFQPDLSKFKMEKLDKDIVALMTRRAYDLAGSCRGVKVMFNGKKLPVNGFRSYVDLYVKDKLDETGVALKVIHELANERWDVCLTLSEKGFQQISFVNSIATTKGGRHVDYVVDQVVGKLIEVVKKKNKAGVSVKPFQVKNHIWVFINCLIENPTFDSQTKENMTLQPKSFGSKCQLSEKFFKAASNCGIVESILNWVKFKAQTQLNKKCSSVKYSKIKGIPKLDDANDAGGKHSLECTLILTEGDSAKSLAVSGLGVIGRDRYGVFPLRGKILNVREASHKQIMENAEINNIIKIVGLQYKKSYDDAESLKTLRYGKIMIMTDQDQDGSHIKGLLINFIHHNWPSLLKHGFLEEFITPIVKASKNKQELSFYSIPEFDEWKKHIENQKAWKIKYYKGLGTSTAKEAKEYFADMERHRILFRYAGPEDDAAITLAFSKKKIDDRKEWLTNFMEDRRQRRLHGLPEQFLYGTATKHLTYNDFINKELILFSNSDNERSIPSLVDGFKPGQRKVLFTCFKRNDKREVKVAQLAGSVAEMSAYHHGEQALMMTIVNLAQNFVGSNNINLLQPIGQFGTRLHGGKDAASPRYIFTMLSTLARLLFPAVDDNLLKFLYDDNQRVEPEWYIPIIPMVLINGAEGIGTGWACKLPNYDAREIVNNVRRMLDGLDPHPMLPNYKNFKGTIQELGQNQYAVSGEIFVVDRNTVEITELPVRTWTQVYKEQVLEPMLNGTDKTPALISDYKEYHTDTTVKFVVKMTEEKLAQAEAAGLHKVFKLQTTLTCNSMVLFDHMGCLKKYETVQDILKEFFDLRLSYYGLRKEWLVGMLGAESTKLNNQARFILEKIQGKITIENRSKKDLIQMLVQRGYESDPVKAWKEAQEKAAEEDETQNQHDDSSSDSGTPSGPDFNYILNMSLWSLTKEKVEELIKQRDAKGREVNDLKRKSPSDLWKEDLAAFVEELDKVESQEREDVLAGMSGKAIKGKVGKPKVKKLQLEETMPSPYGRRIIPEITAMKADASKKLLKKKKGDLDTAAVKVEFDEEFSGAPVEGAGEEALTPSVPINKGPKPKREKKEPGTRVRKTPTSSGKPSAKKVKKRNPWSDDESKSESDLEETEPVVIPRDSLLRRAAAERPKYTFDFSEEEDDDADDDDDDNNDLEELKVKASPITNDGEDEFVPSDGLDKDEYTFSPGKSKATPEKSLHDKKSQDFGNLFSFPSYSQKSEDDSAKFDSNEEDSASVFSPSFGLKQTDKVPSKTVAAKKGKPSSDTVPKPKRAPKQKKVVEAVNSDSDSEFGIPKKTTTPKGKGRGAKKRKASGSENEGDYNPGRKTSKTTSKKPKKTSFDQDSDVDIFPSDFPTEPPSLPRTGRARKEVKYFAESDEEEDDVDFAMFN
Nature of the series: Human topo IIβ-mediated kDNA decatenation assay. The format is biochemical. As for the experimental part: We were also interested in whether compounds can act on both isoforms of the human topo II. Thus, we performed human topo IIβ decatenation assays for compounds 1 and 9. […] (see also Tables S5 and S6 for more details).
as §1

The target of series [6] is T1, human topo IIα. Nature of the series: ATPase activity (ATP hydrolysis) assay, pyruvate kinase/lactate dehydrogenase coupled. The format is biochemical.
Details of series [7]: method as in doi:10.1039/jr9480002240. The following applies: first protonation on the ring nitrogen; cited from earlier work.
For series [8], the system named is MCF-7 cells. Nature of the series: MTS cytotoxicity assay, MCF-7. To be noted: 24 h, one concentration (200, 100 or 50 μM by solubility), vs untreated control. In kind it is cell-based, human. An excerpt:
(§2) We have determined the cytotoxicity of the compounds using the human breast cancer MCF-7 and human hepatocellular carcinoma HepG2 cancer cell lines by standard 3-(4,5-dimethylthiazol-2-yl)-5-(3-carboxymethoxyphenyl)-2-(4-sulfophenyl)-2H-tetrazolium (MTS) assay.[65] The two selected human cancer cell lines are representative and well-established systems for the cell-based evaluation of potential cancer drugs. Etoposide was again used as a positive control (PC). We performed initial screening of compounds 1–14 at one concentration.
(§3) Cytotoxic activity of studied compounds was determined in two human cancer cell lines: hepatocellular carcinoma (HepG2) and breast cancer (MCF-7) cells. Both cell lines were obtained from ATCC. […] After the exposure of cells to the tested compounds, their viability was determined using the MTS assay.
(§4) The cells were seeded at densities of 8000 and 7000 cells/well for HepG2 and MCF-7 cells, respectively, in 200 μL of complete growth medium onto 96-well microtiter plates (Nunc, Thermo Fisher Scientific, Waltham, MA) and were left overnight at 37 °C to attach. […] After 3 h incubation (37 °C, 5% CO2), the absorbance was determined at 490 nm using a spectrofluorometer Synergy MX (BioTek, Winooski, VT). […] Cell viability was calculated by comparing the optical density (OD) of the wells with exposed cells with the wells of solvent control cells, and the results are shown as percentage of cell viability ± SD. […] The EC50 values were determined utilizing nonlinear regression analysis available in GraphPad Prism 7.0 software. Statistically significant difference between control and treated groups was determined by one-way analysis of variance combined with Dunnett’s multiple comparison test.
(Tetrazolium dyes change colour on reduction, which living cells bring about.)

Series [9] has as its system HepG2 cells. Nature of the series: MTS cytotoxicity assay, HepG2. In kind it is cell-based, human. To be noted: 24 h, one concentration (200, 100 or 50 μM by solubility), vs untreated control.
Source text: as §2, §3, §4

Series [10] is described as follows: Solubility observations. The format is physicochemical. To be noted: cell growth medium.
The mark [11] stands for this setting: 500 μM (compound 1: solubility problems, erratic readings).

T1 sequence (P11388 whole entry): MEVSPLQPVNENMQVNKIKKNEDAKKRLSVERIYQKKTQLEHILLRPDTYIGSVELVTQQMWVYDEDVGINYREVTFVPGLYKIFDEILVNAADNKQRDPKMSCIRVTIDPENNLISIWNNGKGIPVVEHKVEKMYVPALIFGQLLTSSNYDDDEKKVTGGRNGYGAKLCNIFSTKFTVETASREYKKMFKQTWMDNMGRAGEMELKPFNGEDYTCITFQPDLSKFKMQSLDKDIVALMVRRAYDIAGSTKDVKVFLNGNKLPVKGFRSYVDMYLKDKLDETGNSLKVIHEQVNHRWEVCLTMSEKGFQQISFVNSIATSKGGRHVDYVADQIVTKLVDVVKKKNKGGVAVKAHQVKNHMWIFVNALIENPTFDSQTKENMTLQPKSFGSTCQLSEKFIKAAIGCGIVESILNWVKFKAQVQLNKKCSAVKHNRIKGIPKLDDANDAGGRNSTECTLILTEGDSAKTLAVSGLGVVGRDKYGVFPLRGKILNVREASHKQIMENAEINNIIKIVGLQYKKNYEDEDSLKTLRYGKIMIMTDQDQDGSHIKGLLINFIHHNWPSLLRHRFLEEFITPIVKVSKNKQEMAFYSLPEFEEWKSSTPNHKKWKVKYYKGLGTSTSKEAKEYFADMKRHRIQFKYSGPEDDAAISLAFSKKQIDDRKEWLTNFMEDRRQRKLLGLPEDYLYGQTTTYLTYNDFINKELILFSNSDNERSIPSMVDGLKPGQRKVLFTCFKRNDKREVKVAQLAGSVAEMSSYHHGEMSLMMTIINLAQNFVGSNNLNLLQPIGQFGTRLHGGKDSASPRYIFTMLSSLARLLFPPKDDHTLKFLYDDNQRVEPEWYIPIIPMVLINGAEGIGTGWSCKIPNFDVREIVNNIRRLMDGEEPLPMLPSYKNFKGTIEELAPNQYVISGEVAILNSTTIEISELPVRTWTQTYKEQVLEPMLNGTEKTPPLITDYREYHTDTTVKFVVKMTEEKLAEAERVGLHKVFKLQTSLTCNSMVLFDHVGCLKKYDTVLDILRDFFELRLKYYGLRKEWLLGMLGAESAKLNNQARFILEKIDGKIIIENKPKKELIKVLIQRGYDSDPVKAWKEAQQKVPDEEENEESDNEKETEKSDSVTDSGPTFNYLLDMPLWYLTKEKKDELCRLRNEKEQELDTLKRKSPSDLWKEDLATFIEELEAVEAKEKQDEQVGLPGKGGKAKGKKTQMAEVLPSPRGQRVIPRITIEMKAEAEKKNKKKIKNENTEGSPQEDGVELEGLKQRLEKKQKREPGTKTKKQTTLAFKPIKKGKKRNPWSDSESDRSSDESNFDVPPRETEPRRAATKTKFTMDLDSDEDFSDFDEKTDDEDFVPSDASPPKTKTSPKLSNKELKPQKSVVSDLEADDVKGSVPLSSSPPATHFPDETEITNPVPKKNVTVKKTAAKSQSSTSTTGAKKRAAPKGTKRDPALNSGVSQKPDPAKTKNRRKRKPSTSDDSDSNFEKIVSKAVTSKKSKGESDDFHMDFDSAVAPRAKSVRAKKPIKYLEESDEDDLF

In series [1], `CC(=O)Nc1ccc(Nc2nc(-c3sc(NC(C)=O)nc3C)cs2)cc1` [Compound 9] returned an IC50 of 60 µM. Further, the “% Linear DNA (first column)” value in [2] (3.9 μM) turned out to be 5.49%; in [2] (31.5 μM), 7.77%; in [2] (125 μM), 4.84%; in series [2] (500 μM) it was 2.95%. In addition, the “% Linear DNA (second column)” value came to 7.03% in series [2] (3.9 μM), 6.75% in series [2] (31.5 μM), 4.60% in series [2] (125 μM) and 2.25% in [2] (500 μM). Moreover, the “linear DNA formation in cleavage assay (in words)” value in [2] was “did not reveal a significant amount of linear DNA above the background level”.
On to `COc1ccc(Nc2nc(-c3sc(NC(C)=O)nc3C)cs2)cc1` [Compound 10], for which half-maximal inhibition in [1] (IC50) required 22.7 µM. For the same compound, the inhibition at 125 µM in series [3] (125 μM) is 26%. This compound also yielded an inhibition at 500 µM in series [3] (500 μM) of 64%.
Turning to `Cc1nc(N)sc1-c1csc(Nc2ccc(S(N)(=O)=O)cc2)n1` [Compound 5], the concentration for half-maximal inhibition (IC50) in [1] was 70.1 µM; in [4], 8.2 µM.
Take `CC(=O)Nc1nc(C)c(-c2csc(Nc3ccc(O)cc3)n2)s1` [Compound 12]: the concentration for half-maximal inhibition (IC50) in series [1] is 193 µM; in series [4] it was 30 µM.
The compound `Cc1cc(O)ccc1Nc1nc(-c2sc(N)nc2C)cs1` [Compound 2] came in with a half-maximal inhibitory concentration (IC50) in series [1] of 35.8 µM.
Take `COc1cc([C@@H]2c3cc4c(cc3[C@@H](O[C@@H]3O[C@@H]5CO[C@@H](C)O[C@H]5[C@H](O)[C@H]3O)[C@H]3COC(=O)[C@H]23)OCO4)cc(OC)c1O` [etoposide, reference compound]: the “% Decatenated Average” value in series [5] (3.9 μM) was found to be 100.0%. Moreover, in series [5] (500 μM), the “% Decatenated Assay 1” value amounted to 15.0%. Moreover, the “% Linear DNA (first column)” value in series [2] (3.9 μM) is recorded as 22.76%; in series [2] (31.5 μM), 33.00%; in series [2] (125 μM), 45.35%; in series [2] (500 μM), 43.03%. Besides, the “% Linear DNA (second column)” value in series [2] (3.9 μM) is 11.88%; in series [2] (31.5 μM), 36.26%; in series [2] (125 μM), 36.91%; in [2] (500 μM), 48.40%. Also, the “linear DNA formation in cleavage assay (in words)” value in [2] is recorded as “poison activity”. In addition, the “Percentage ATPase activity Run 1” value in series [6] (3.9 μM) came out at 52.71%; in [6] (31.5 μM), 36.43%; in series [6] (125 μM), 30.23%; in series [6] (setting [11]) it was 0%. Moreover, the “Percentage ATPase activity Run 2” value in series [6] (3.9 μM) is listed as 51.94%; in series [6] (31.5 μM) it was 37.21%; in [6] (125 μM), 37.21%; in series [6] (setting [11]) it was 4.65%.
`Nc1nccs1` [2-aminothiazole]: the pKa in series [7] was 5.4.
On to `Cc1cc(NS(=O)(=O)c2ccc(Nc3nc(-c4sc(N)nc4C)cs3)cc2)no1` [Compound 4], for which the half-maximal inhibitory concentration (IC50) in [1] was 30.1 µM.
With `CC(=O)Nc1nc(C)c(-c2csc(Nc3ccc(C(=O)O)cc3)n2)s1` [Compound 8], the results for the half-maximal inhibitory concentration (IC50) in series [1] and in series [4] were 120 µM and 5.5 µM, respectively. Besides, the “reduction of cell viability, initial cytotoxicity screening” value (“reduction of cell viability” below) in series [8] and in series [9] was “no or only minor effects” in each case.
In turn, `CC(=O)Nc1nc(C)c(-c2csc(Nc3cccc(C(=O)O)c3)n2)s1` [Compound 11] showed an IC50 in [1] of 134 µM. Besides, the “reduction of cell viability” value in [8] and in series [9] was “no or only minor effects” each time.
`CC(=O)Nc1nc(C)c(-c2csc(Nc3ccccc3)n2)s1` [Compound 14]: the IC50 in series [1] came to 357 µM.
On to `Cc1nc(N)sc1-c1csc(Nc2ccc(C(=O)O)c(O)c2)n1` [Compound 6], for which the half-maximal inhibitory concentration (IC50) in [1] is 37.7 µM; in series [4] it was 67 µM. Further, the “reduction of cell viability” value in series [8] and in series [9] was “no or only minor effects” throughout.
On to `CCC(=O)Nc1nc(C)c(-c2csc(Nc3ccc(C(=O)O)cc3)n2)s1` [Compound 13], for which the IC50 in series [1] was 123 µM; in [4], 1.1 µM.
As to `CC(=O)c1ccc(Nc2nc(-c3sc(N)nc3C)cs2)cc1` [Compound 3], in series [1], the 50% inhibitory concentration (IC50) is 222 µM. In addition, the “solubility in the cell growth medium” value in [10] is “low solubility”.
On to `CO[C@@H]1[C@@H](OC(N)=O)[C@@H](O)[C@H](Oc2ccc3c(O)c(NC(=O)c4ccc(O)c(CC=C(C)C)c4)c(=O)oc3c2C)OC1(C)C` [novobiocin, reference compound], for which the “Rate ATPase activity” value in series [6] (10 μM control) was 0.14 µmol/min.
As to `CC(=O)Nc1nc(C)c(-c2csc(Nc3cccc(O)c3)n2)s1` [Compound 7], the IC50 in series [1] came out at 33.7 µM.

The values are drawn from publication PMC7469689, “Substituted 4,5′-Bithiazoles as Catalytic Inhibitors of Human DNA Topoisomerase IIα” (Journal of Chemical Information and Modeling, 2020).
